The text below walks through data of patent US12071426B2, “IRE1 small molecule inhibitors” (Cornell University, priority 2018, dated 2024).

SMILES strings stand for the structures.

Series [1] in a line: Microsome stability assay. The format is in vitro ADME. The conditions noted are these: liver microsomes, 1 μM, 37° C., 0.5 mg/ml microsomal protein. The procedure: The formic acid salt of a compound from Table 1 is tested under the microsome stability assay outlined below. Test compounds are incubated at 37° C. with liver microsomes (pooled from multiple donors) at 1 μM in the presence of a NADPH regenerating system at 0.5 mg/ml microsomal protein. Positive controls included Testosterone (3A4 substrate), Propafenone (2D6) and Diclofenac (2C9), which are incubated with microsomes in the presence of an NADPH regenerating system. At time points (0, 5, 10, 20, 30 and 60 minutes), samples are removed and immediately mixed with cold acetonitrile containing internal standard (IS). Test compounds incubated with microsomes without the NADPH regenerating system for 60 min is also included. A single point for each test condition (n=1) is obtained, and samples are analyzed by LC/MS/MS. Disappearance of the test compound is assessed based on peak area ratios of analyte/IS (no standard curve). […] Compound 1 was tested and had 45% or more of parent compound remaining after a 60 minute incubation.
In general terms: Liver microsomes are a subcellular fraction often used to study metabolism.

Series [2] concerns the target T1, IRE1a (Homo sapiens, UniProt O75460). Nature of the series: In vitro FRET assay (XBP1 RNA probe cleavage). The format is biochemical. The conditions noted are these: SignalChem IRE1a protein 2 nM, fluorescence 485/515 nm. The procedure: In vitro FRET assay was performed to evaluate the ability of select compounds to inhibit IRE1, the results of which are summarized in Table 3. To perform the in vitro FRET assay, 1× complete assay buffer (CAB; […], 50 mM sodium citrate pH 7.15, 1 mM magnesium acetate, 0.02% tween 20) was used to dilute SignalChem IRE1a protein to a final concentration of 2 nM. Selected compounds were serially diluted with DMSO in a non-binding black 384-well plate for a total of 15 ul in each well. 2 ul of the serially diluted compound or DMSO control were then added to new wells containing 98 ul of 1× CAB, for a total volume of 100 ul, 10 ul of which were then transferred to wells of a new plate. 5 ul of the diluted IRE1a was then added to each well. 5 ul of a […] XBP1 RNA probe was then added to each well. Fluorescence was then read over 30 minutes in kinetic mode (485/515 nm).
Two RNA probes were used, XBP1 wildtype (SEQ ID NO: 2) which is able to be spliced by active IRE1a or XBP1 mutant (SEQ ID NO: 3) which is unable to be spliced. Each probe contained a 5′ 6-FAM modification and a 3′ IOWA Black FQ modification.
A second FRET assay was performed to assess ATP-mediated inhibition. In this case, compounds and IRE1a were prepared and combined as discussed above, with the addition of ATP up to 1 mM final concentration. […] Plates were then read over 30 minutes in kinetic mode (485/515 nm).

The target in series [3] is T1, IRE1a. Nature of the series: IRE1a Endoribonuclease Nanoluciferase Assay (XBP1 luciferase reporter in 293T cells). The conditions noted are these: 293T cells transfected with XBP1 luciferase reporter plasmid, ER stressors +/- inhibitors. The class given is cell-based. Also on record: endogenous in cells; host or cells: 293T cells. The procedure: Compounds disclosed herein were assessed for disruption of IRE1 signaling using a IRE1a Endoribonuclease Nanoluciferase Assay. Briefly, 2.5×10^6 293T cells were seeded in a 10 cm^2 tissue culture plate. About 24 hours later, the cells were transfected with Effectene. In a 15 mL tube, the following was added: 2 ug XBP1 luciferase reporter plasmid (PGK-Luc2-P2A-XBP1u-Nanoluciferase-PEST); 300 ul EC buffer; and 16 ul Enhancer, followed by incubation at room temp for 5 minutes. Next, 60 ul Effectene (Qiagen 301427) was added, followed by incubation at room temperature for 10 minutes. 2.6 mL cDMEM media was added. Old media was aspirated from the cells, followed by addition of 7 mL fresh media. Full transfection mixture was added dropwise to cells. Cells were incubated for 6 hours, followed by trypsinization, centrifugation and resuspension in 11 mL fresh cDMEM media. 100 uL of cells were plated per a well in a 96 well plate. A day later, ER stressors of choice +/− inhibitors were added. To harvest, media was aspirated from cells completely, then 50 uL 1× passive lysis buffer (Promega: E1941) was added per well and put on shaker (300 rpm) for 30 minutes at room temperature. […] Plates were read on luminometer, 1000 ms integration time per well. […] Plates were read on luminometer, 1000 ms second integration time per well. […]
A general note: In a reporter assay the amount or activity of a reporter protein is the signal.

T1 sequence (O75460 19-977): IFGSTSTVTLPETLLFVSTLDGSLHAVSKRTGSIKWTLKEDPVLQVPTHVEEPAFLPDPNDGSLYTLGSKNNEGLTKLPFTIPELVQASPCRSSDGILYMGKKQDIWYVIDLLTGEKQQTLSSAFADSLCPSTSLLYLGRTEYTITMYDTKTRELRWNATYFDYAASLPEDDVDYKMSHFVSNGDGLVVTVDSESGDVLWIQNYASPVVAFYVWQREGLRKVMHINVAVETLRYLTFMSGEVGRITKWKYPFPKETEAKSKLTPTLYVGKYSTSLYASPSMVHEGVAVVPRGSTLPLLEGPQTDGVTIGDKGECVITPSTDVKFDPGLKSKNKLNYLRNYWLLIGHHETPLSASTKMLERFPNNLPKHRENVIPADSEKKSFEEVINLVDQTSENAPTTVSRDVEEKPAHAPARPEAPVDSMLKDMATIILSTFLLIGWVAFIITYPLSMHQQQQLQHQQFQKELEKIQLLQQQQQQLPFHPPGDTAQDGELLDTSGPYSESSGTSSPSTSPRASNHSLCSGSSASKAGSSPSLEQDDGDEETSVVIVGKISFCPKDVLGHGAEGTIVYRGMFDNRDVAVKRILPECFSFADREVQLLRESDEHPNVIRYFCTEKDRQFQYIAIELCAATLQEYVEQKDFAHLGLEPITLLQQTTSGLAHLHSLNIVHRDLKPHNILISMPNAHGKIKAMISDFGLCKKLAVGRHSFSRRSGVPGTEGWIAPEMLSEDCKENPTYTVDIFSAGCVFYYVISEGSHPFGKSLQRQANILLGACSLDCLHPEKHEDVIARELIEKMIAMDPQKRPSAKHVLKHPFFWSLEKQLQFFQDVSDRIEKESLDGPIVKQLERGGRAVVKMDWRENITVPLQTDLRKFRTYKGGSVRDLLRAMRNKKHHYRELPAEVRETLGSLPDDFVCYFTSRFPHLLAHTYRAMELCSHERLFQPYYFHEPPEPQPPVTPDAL

Usually IC50 stands for the midpoint of a concentration-inhibition curve. One may read the EC50 as the midpoint of the concentration-response curve. On to `CCc1cc(-c2ccc(NS(=O)(=O)c3cnccc3Cl)nc2C)cc2cnc(N[C@H]3CC[C@H](N(C)C)CC3)nc12` [Compound 1, 4-chloro-N-(5-(2-(((1r,4r)-4-(dimethylamino)cyclohexyl)-amino)-8-ethylquinazolin-6-yl)-6-methylpyridin-2-yl)-pyridine-3-sulfonamide], for which the “parent compound remaining after a 60 minute incubation” value in series [1] was at least 45%. This compound also displayed a concentration for half-maximal inhibition (IC50) against IRE1a [2] of at most 5 nM. On IRE1a [3], the EC50 was at most 5 nM.

As for `CCc1cc(-c2ccc(NS(=O)(=O)c3ccccc3Cl)nc2C)nc2cnc(N[C@H]3CC[C@H](N(C)C)CC3)nc12` [Compound 2, 2-chloro-N-(5-(2-(((1r,4r)-4-(dimethylamino)cyclohexyl)-amino)-8-ethylpyrido[3,2-d]-pyrimidin-6-yl)-6-methyl-pyridin-2-yl)benzenesulfon-amide], the half-inhibitory concentration (IC50) at IRE1a [2] is at most 5 nM. Besides, the EC50 on IRE1a [3] was at most 5 nM.
